In test [1] the test system is individual with cancer pain caused by throat cancer. Description: Treatment of cancer pain. It is filed as in vivo, human. To be noted: water containing the anion, ingested; self-report of one individual. As to the method: An individual who presented with cancer pain caused by throat cancer was administered water containing the cannabidiol anion (2-[6-isopropenyl-3-methylcyclohex-2-en-1-yl]-3-hydroxy-5-pentylphenolate).

Test [2] concerns individual with hip pain associated with sitting. As to the kind of experiment: Treatment of chronic hip pain. Conditions: glycerol tincture, ingested; self-report of one individual. It is filed as in vivo, human. On the procedure:
An individual who presented with hip pain associated with sitting was administered a glycerol tincture containing the cannabidiol anion.

Test [3] relates to individual with chronic back pain associated with standing. Description: Treatment of chronic back pain. To be noted: glycerol tincture, ingested; self-report of one individual. It is filed as in vivo, human. On the procedure:
An individual who presented with chronic back pain associated with standing was administered a glycerol tincture containing the cannabidiol anion.

Test [4] deals with individual with arthritis. Description: Treatment of arthritis. It is filed as in vivo, human. Conditions: glycerol tincture; self-report of one individual. On the procedure: An individual who was unable to fill […] hydroxychloroquine prescription to treat the arthritis during the COVID-19 pandemic was administered a glycerol tincture containing the cannabidiol anion.
For test [5], the system named is dog that suffers from chronic seizures. As to the kind of experiment: Treatment of epilepsy. Format: in vivo. To be noted: report of the dog's owners. On the procedure:
A dog that suffers from chronic seizures was administered a glycerol tincture containing the cannabidiol anion immediately after the onset of a seizure.

The subject of test [6] is individual with cramping and restless legs syndrome. Description: Treatment of cramping and restless legs syndrome. It is filed as in vivo, human. Conditions: glycerol tincture before sleep; self-report of one individual. On the procedure:
An individual who presented with cramping and restless legs syndrome was administered a glycerol tincture containing the cannabidiol anion before sleep.

Test [7] relates to individual with hip pain and lower back pain associated with spinal fusion surgery. Description: Treatment of post laminectomy syndrome. Format: in vivo, human. To be noted: glycerol tincture, ingested, self-report. As to the method:
An individual with hip pain and lower back pain associated with spinal fusion surgery was administered a glycerol tincture containing the cannabidiol anion.

Test [8] concerns individual with knee pain associated with inflammation caused by trauma from a fall. Description: Treatment of knee pain. Format: in vivo, human. Conditions: glycerol tincture, ingested; self-report of one individual. As to the method: An individual who presented with knee pain associated with inflammation caused by trauma from a fall was administered a glycerol tincture containing the cannabidiol anion.

The subject of test [9] is individual with back pain associated with driving for prolonged periods of time. As to the kind of experiment: Treatment of acute back pain. Format: in vivo, human. Conditions: glycerol tincture, ingested; self-report of one individual. As to the method:
An individual who presented with back pain associated with driving for prolonged periods of time was administered a glycerol tincture containing the cannabidiol anion.

Test [10] concerns individual with social anxiety associated with presenting at business meetings. As to the kind of experiment: Treatment of social anxiety. Format: in vivo, human. To be noted: beverage given before presenting at a business meeting; self-report. On the procedure: An individual who presented with social anxiety associated with presenting at business meetings was administered a beverage containing the cannabidiol anion before presenting.

Another test relates to individual with anxiety. Description: Treatment of anxiety. It is filed as in vivo, human. As to the method:
An individual was administered a beverage containing the cannabidiol anion prior to driving to an airport to catch a flight that was scheduled to leave within thirty minutes of the arrival at the airport.
An individual who suffers from chronic anxiety was administered a glycerol tincture containing the cannabigerol anion.

The subject of test [11] is individual with chronic pain. As to the kind of experiment: Treatment of chronic pain. It is filed as in vivo, human. Conditions: glycerol tincture; self-report of one individual. On the procedure:
An individual who presented with chronic pain was administered a glycerol tincture containing the cannabidiol anion.

Test [12] relates to individual with Crohn's disease. As to the kind of experiment: Treatment of Crohn's disease. It is filed as in vivo, human. Conditions: glycerol tincture; self-report of one individual. As to the method:
An individual who presented with Crohn's disease was administered a glycerol tincture containing the cannabigerol anion.

In test [13] the test system is individual with chronic insomnia. Description: Treatment of insomnia. It is filed as in vivo, human. Conditions: glycerol tincture before sleep; self-report of one individual. As to the method: An individual who presented with chronic insomnia was administered a glycerol tincture containing the cannabigerol anion before sleep.
Test [14] relates to individual with Inflammatory Bowel Disease. Description: Treatment of Inflammatory Bowel Disease. Conditions: glycerol tincture; self-report of one individual. Format: in vivo, human. As to the method:
An individual who presented with Inflammatory Bowel Disease was administered a glycerol tincture containing the cannabigerol anion.

As to `C=C(C)C1CCC(C)=CC1c1c(O)cc(CCCCC)cc1O` (centres unmarked) [cannabidiol anion, 2-[6-isopropenyl-3-methylcyclohex-2-en-1-yl]-3-hydroxy-5-pentylphenolate], the “reported effect on throat pain” value in test [1] was “notable alleviation of throat pain within minutes of ingestion”. The “reported effect on hip pain” value in test [2] was “notable alleviation of the hip pain within minutes of ingestion”. The “reported effect on chronic back pain” value in test [3] is “notable alleviation of the back pain within minutes of ingestion”. The “reported effectiveness at treating arthritis compared with hydroxychloroquine” value in test [4] is “more effective at treating their arthritis than hydroxychloroquine”. Also, the effect on seizures result in [5] (glycerol tincture immediately after the onset of a seizure) is “both instantaneously and consistently arrested multiple seizures in the dog”. For the same compound, the “effect on quality of life” value in test [5] (glycerol tincture) was “significantly improved the dog's quality of life”. For the same compound, in [6], the “reported effect on sleep quality” value was “significant improvement in sleep quality”. Moreover, the “reported effect on hip pain and lower back pain” value in [7] was “notable alleviation of hip pain and lower back pain within minutes of ingestion”. Besides, the “reported effect on mobility and knee pain” value in test [8] is “improved mobility and alleviation of knee pain within minutes of ingestion”. Further, the “reported effect on back pain” value in test [9] was “notable alleviation of the back pain within minutes of ingestion”. For the same compound, in test [10], the “reported effect on social anxiety and performance” value was “reduced anxiety and improved performance during the business meeting”. Also, in the test with individual with anxiety (beverage given prior to driving, self-report of one individual), the “reported anxiety during a drive to an airport” value is reported as “notable absence of anxiety”. In addition, in test [11], the “reported effect in chronic pain (standard of living)” value is on record as “significant improvement in their standard of living”.
Turning to `CCCCCc1cc(O)c(CC=C(C)CCC=C(C)C)c(O)c1` [cannabigerol anion, 2-[3,7-dimethylocta-2,6-diene-1-yl]-3-hydroxy-5-pentylphenolate], in test [12], the “reported effect on symptoms of Crohn's disease” value is reported as “significant improvement in their symptoms of Crohn's disease”. Further, the “reported effect on onset and quality of sleep” value in [13] is “significant improvement in the onset and quality of their sleep”. Also, the “reported effect on symptoms of Inflammatory Bowel Disease” value in [14] was “significant improvement in their symptoms of Inflammatory Bowel Disease”. Moreover, the “reported effect on chronic anxiety symptoms” value in the test on individual with anxiety (glycerol tincture, individual who suffers from chronic anxiety, self-report) is given as “significant improvement in their anxiety symptoms”.

Values taken from patent US12161608B2, “Methods of preventing and treating health conditions using cannabinoid anions” (NATURAL EXTRACTION SYSTEMS, LLC, priority 2019, dated 2024).
